Assay results published in patent US20200383985A1, “Inhibitors of Protease Activated Receptor-2” (Endosome Therapeutics, Inc., priority 2017, published 2020).
Read-outs that look alike come from different tables or passages of the source.

Experiments:
[1] = molecular target: T1, PAR2 (Homo sapiens, UniProt P55085); assay: IP1 accumulation assay in HEK293 cells (endogenous PAR2); type: cell-based; conditions: trypsin (30 nM)
T1 construct: HT-29 cells and HEK293 cells, which express endogenous PAR2; endogenous in cells; host or cells: HT-29
T1 sequence (P55085 26-397): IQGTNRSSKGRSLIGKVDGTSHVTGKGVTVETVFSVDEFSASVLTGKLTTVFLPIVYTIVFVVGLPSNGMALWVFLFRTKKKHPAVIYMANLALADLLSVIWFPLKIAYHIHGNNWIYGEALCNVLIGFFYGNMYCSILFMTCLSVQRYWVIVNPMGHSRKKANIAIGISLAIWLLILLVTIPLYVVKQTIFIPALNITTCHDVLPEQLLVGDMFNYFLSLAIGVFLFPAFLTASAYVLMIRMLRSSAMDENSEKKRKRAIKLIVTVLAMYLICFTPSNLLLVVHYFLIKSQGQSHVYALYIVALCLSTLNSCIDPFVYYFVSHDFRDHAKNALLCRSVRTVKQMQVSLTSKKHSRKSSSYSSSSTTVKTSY
Experimental: Inhibition of PAR2 signaling with known PAR2 inhibitor I-343 (FIG. 14A) was investigated in HT-29 cells and HEK293 cells, which express endogenous PAR2, and in KNRK cells expressing human (h) PAR2. Accumulation of inositol phosphate-1 (IP1) was measured in response to the PAR2-selective agonist 2-Furoyl-LIGRLO-NH2 (2F), an analogue of the trypsin-exposed tethered ligand, or trypsin.
KNRK-hPAR2, KNRK, HEK293, or HT-29 cells were seeded at a density of 50×10^3 cells/well onto clear 96-well plates (PerkinElmer). After 24 h of culture, medium was replaced with IP1 stimulation buffer (10 mM HEPES, 1 mM CaCl2, 0.5 mM MgCl2, 4.2 mM KCl, 146 mM NaCl, 5.5 mM glucose, 50 mM LiCl; 37° C., 5% CO2.). Cells were pre-incubated with the antagonist or vehicle for 30 min prior to the addition of agonist. Cells were then further incubated for 40 min. Stimulation buffer was […]

[2] = tested on: βARR1-RLuc8 or Gαq-RLuc8 and Rab5a-Venus; assay: BRET of βARR1 and Gαq translocation to early endosomes in HEK293 cells; type: cell-based; conditions: trypsin 100 nM
Experimental: To determine whether trypsin induces translocation of βARR and Gαq to endosomes, we measured BRET between βARR1-RLuc8 or Gαq—RLuc8 and Rab5a-Venus in HEK293 cells. […] Immunofluorescence and structured illumination microscopy were used to localize PAR2-HA, Gαq and early endosomal antigen-1 (EEA1) in HEK-293 cells. In unstimulated cells, PAR2 was confined to the plasma membrane, although Gαq was detected in early endosomes (FIG. 18C). Trypsin (10 nM, 30 min) induced translocation of PAR2 to early endosomes containing Gαq. The results support the hypothesis that trypsin causes assembly of a PAR2/βARR/Gαq signalosome in early endosomes.
HEK293 cells were transiently transfected in 10 cm dishes (˜50% confluency) with: PAR2-RLuc8 (1 μg) and either RIT-Venus or Rab5a-Venus (both 4 μg); Flag-PAR2-HA (1 μg) and βARR1-RLuc8 (1 μg) plus Rab5a-Venus (4 μg); or Flag-PAR2-HA (1 μg) and Gαq-RLuc8 (0.5 μg), Gb (1 μg), Gg (1 μg) and Rab5a-Venus (4 μg). […] RLuc8 and YFP intensities were measured at 475±30 nm and 535±30 nm, respectively, using a LUMIstar Omega Microplate Reader (BMG LabTech) before and after challenge with proteases, biopsy supernatants or vehicle. Data are presented as a BRET ratio, calculated as the ratio of YFP to RLuc8 signals, and normalized to the baseline average, followed by vehicle subtraction. Treatment effects were determined by comparison of area under the curve values.

IC50 ([1]; read-out: IC50, trypsin-induced IP1 in HEK293 cells) [nM] | IC50 ([1]; read-out: pIC50, trypsin-induced IP1 in HEK293 cells (converted)) [nM] | Compound | βARR1-RLuc8/Rab5a-Venus BRET and Gαq-RLuc8/Rab5a-Venus BRET [2]
0.4 | 0.437 | Cc1nc(C(=O)N2CCN(C(=O)c3cn4nc(-c5ccc(F)cc5)cc(C(C)(C)C)c4n3)C(C)(C)C2)n[nH]1 [Compound I-343, (8-(tert-butyl)-6-(4-fluorophenyl)imidazo[1,2-b]pyridazin-2-yl)(2,2-dimethyl-4-(5-methyl-1H-1,2,4-triazole-3-carbonyl)piperazin-1-yl)methanone] | 
 |  | trypsin | stimulated an increase
